The values below come from ChEMBL document CHEMBL4049402, “Synthesis and cytotoxic activity of novel tetrahydrobenzodifuran-imidazolium salt derivatives” (Bioorg Med Chem Lett, 2017).

In assay [1] the test system is HL-60. In words: Cytotoxicity against human HL60 cells after 48 hrs by MTT assay. In kind it is functional, cell-based. (Formazan colour is commonly taken as a measure of viable cells.)
The subject of assay [2] is SW480. The experiment in a line: Cytotoxicity against human SW480 cells after 48 hrs by MTT assay. It counts as functional, cell-based.
The test system of assay [3] is SMMC-7721. The experiment in a line: Cell cycle arrest in human SMMC7721 cells assessed as accumulation at S phase at 4 uM after 24 hrs by propidium iodide staining based flow cytometry (reference value: 20.18 +/- 0.02%). In kind it is functional.
In assay [4] the test system is SMMC-7721. In words: Induction of apoptosis in human SMMC7721 cells assessed as late apoptotic cells at 16 uM after 48 hrs by Annexin-V-FITC/propidium iodide staining based flow cytometry (reference value: 2.42%). It counts as functional.
Assay [5] has as its system SMMC-7721. The experiment in a line: Cell cycle arrest in human SMMC7721 cells assessed as accumulation at G0/G1 phase at 2 uM after 24 hrs by propidium iodide staining based flow cytometry (reference value: 70.12 +/- 0.18%). It counts as functional.
Assay [6] concerns MCF7. The experiment in a line: Potency index, ratio of cisplatin IC50 to compound IC50 for human MCF7 cells. In kind it is functional.
Assay [7] deals with SMMC-7721. In words: Cell cycle arrest in human SMMC7721 cells assessed as increase in G1 population after 24 hrs by propidium iodide staining based flow cytometry. In kind it is functional.
For assay [8], the system named is SMMC-7721. The experiment in a line: Cell cycle arrest in human SMMC7721 cells assessed as accumulation at G2/M phase at 2 uM after 24 hrs by propidium iodide staining based flow cytometry (reference value: 3.12 +/- 0.02%). It counts as functional.
Assay [9] deals with SMMC-7721. In words: Induction of apoptosis in human SMMC7721 cells assessed as early apoptotic cells at 8 uM after 48 hrs by Annexin-V-FITC/propidium iodide staining based flow cytometry (reference value: 1.82%). It counts as functional. (A flow cytometer gives signals particle by particle.)
Assay [10] concerns SMMC-7721. The experiment in a line: Induction of apoptosis in human SMMC7721 cells assessed as live cells at 16 uM after 48 hrs by Annexin-V-FITC/propidium iodide staining based flow cytometry (reference value: 92.6%). It counts as functional.
Assay [11] has as its system SMMC-7721. The experiment in a line: Induction of apoptosis in human SMMC7721 cells assessed as live cells at 8 uM after 48 hrs by Annexin-V-FITC/propidium iodide staining based flow cytometry (reference value: 92.6%). It counts as functional.
Assay [12] has as its system SMMC-7721. In words: Induction of apoptosis in human SMMC7721 cells assessed as live cells at 4 uM after 48 hrs by Annexin-V-FITC/propidium iodide staining based flow cytometry (reference value: 92.6%). It counts as functional.
Assay [13] relates to SMMC-7721. The experiment in a line: Induction of apoptosis in human SMMC7721 cells assessed as late apoptotic cells at 12 uM after 48 hrs by Annexin-V-FITC/propidium iodide staining based flow cytometry (reference value: 2.42%). It counts as functional.
Assay [14] concerns SMMC-7721. The experiment in a line: Induction of apoptosis in human SMMC7721 cells assessed as necrotic cells at 8 uM after 48 hrs by Annexin-V-FITC/propidium iodide staining based flow cytometry (reference value: 3.18%). It counts as functional.
Assay [15] deals with SMMC-7721. The experiment in a line: Cytotoxicity against human SMMC7721 cells after 48 hrs by MTT assay. It counts as functional, cell-based.
The subject of assay [16] is SMMC-7721. In words: Induction of apoptosis in human SMMC7721 cells assessed as late apoptotic cells at 4 uM after 48 hrs by Annexin-V-FITC/propidium iodide staining based flow cytometry (reference value: 2.42%). In kind it is functional.
Assay [17] relates to SMMC-7721. In words: Induction of apoptosis in human SMMC7721 cells assessed as necrotic cells at 16 uM after 48 hrs by Annexin-V-FITC/propidium iodide staining based flow cytometry (reference value: 3.18%). It counts as functional.
In assay [18] the test system is SMMC-7721. The experiment in a line: Induction of apoptosis in human SMMC7721 cells assessed as early apoptotic cells at 16 uM after 48 hrs by Annexin-V-FITC/propidium iodide staining based flow cytometry (reference value: 1.82%). It counts as functional.
In assay [19] the test system is SMMC-7721. The experiment in a line: Induction of apoptosis in human SMMC7721 cells assessed as late apoptotic cells at 8 uM after 48 hrs by Annexin-V-FITC/propidium iodide staining based flow cytometry (reference value: 2.42%). It counts as functional.
Assay [20] deals with SMMC-7721. The experiment in a line: Potency index, ratio of cisplatin IC50 to compound IC50 for human SMMC7721 cells. In kind it is functional.
For assay [21], the system named is MCF7. The experiment in a line: Cytotoxicity against human MCF7 cells after 48 hrs by MTT assay. It counts as functional, cell-based.
Assay [22] concerns SMMC-7721. In words: Induction of apoptosis in human SMMC7721 cells assessed as early apoptotic cells at 12 uM after 48 hrs by Annexin-V-FITC/propidium iodide staining based flow cytometry (reference value: 1.82%). It counts as functional.
The test system of assay [23] is SMMC-7721. In words: Cell cycle arrest in human SMMC7721 cells assessed as accumulation at G2/M phase at 4 uM after 24 hrs by propidium iodide staining based flow cytometry (reference value: 3.12 +/- 0.02%). In kind it is functional.
In assay [24] the test system is SMMC-7721. The experiment in a line: Cell cycle arrest in human SMMC7721 cells assessed as accumulation at S phase at 2 uM after 24 hrs by propidium iodide staining based flow cytometry (reference value: 20.18 +/- 0.02%). It counts as functional.
Assay [25] relates to SMMC-7721. The experiment in a line: Induction of apoptosis in human SMMC7721 cells assessed as live cells at 12 uM after 48 hrs by Annexin-V-FITC/propidium iodide staining based flow cytometry (reference value: 92.6%). It counts as functional.
Assay [26] deals with SMMC-7721. In words: Cell cycle arrest in human SMMC7721 cells assessed as accumulation at G0/G1 phase at 4 uM after 24 hrs by propidium iodide staining based flow cytometry (reference value: 70.12 +/- 0.18%). In kind it is functional.
The subject of assay [27] is A549. The experiment in a line: Cytotoxicity against human A549 cells after 48 hrs by MTT assay. It counts as functional, cell-based.
Assay [28] has as its system SMMC-7721. In words: Induction of apoptosis in human SMMC7721 cells assessed as necrotic cells at 4 uM after 48 hrs by Annexin-V-FITC/propidium iodide staining based flow cytometry (reference value: 3.18%). It counts as functional.
In assay [29] the test system is SMMC-7721. The experiment in a line: Induction of apoptosis in human SMMC7721 cells assessed as necrotic cells at 12 uM after 48 hrs by Annexin-V-FITC/propidium iodide staining based flow cytometry (reference value: 3.18%). It counts as functional.
Assay [30] deals with SMMC-7721. In words: Induction of apoptosis in human SMMC7721 cells assessed as early apoptotic cells at 4 uM after 48 hrs by Annexin-V-FITC/propidium iodide staining based flow cytometry (reference value: 1.82%). It counts as functional.

The structures appear in SMILES notation.

For `Cc1n(Cc2c3c(cc4c2OCC4)OCC3)c2ccccc2[n+]1CC(=O)c1ccc2ccccc2c1.[Br-]`, the IC50 – broadly, the concentration at which inhibition is half-maximal – was found to be 0.8 µM in [1] (Homo sapiens, HL-60, 48 h); 4.49 µM in assay [2] (Homo sapiens, SW480, 48 h); 4.52 µM in assay [15] (Homo sapiens, SMMC-7721, 48 h); 1.65 µM in assay [21] (Homo sapiens, MCF7, 48 h); 6.1 µM in assay [27] (Homo sapiens, A549, 48 h). In addition, the Activity is 8.75% in assay [3]; 92.4% in assay [4]; 70.58% in assay [5]; “Dose-dependent effect” in assay [7]; 4.37% in assay [8]; 0.86% in [9]. Further, the Activity is listed as 0.69% in assay [10]; 87.1% in assay [11]; 91.9% in assay [12]; 37.3% in assay [13]; 7.42% in assay [14]; 3.18% in assay [16]. Also, the Activity in [17] is given as 6.48%; in assay [18], 0.43%; in [19] it was 4.64%; in assay [22] it was 0.98%; in assay [23], 0.94%; in [24], 14.85%. Further, the Activity in [25] was found to be 30.7%; in assay [26], 79.57%; in [28] it was 3.44%; in assay [29] it was 31%; in assay [30] it was 1.43%. Further, the “Ratio IC50” value came out at 8.4 in assay [6] and 2.7 in assay [20].
Turning to `Cc1cc2c(cc1C)[n+](Cc1ccc3ccccc3c1)cn2Cc1c2c(cc3c1OCC3)OCC2` [listing 1 of 2 here], the half-maximal inhibitory concentration (IC50) in assay [1] (hl-60) amounted to 0.29 µM; in [2] (sw480) it was 6.84 µM; in assay [15] (smmc-7721) it was 2.98 µM; in assay [21] (mcf7), 8.34 µM; in [27] (a549) it was 3.62 µM.
As for `COc1ccc(C(=O)C[n+]2ccn(Cc3c4c(cc5c3OCC5)OCC4)c2)cc1`, the half-inhibitory concentration (IC50) in [1] (Homo sapiens, HL-60, 48 h) is more than 20 µM; in assay [2] (Homo sapiens, SW480, 48 h), more than 20 µM; in [15] (Homo sapiens, SMMC-7721, 48 h), more than 20 µM; in assay [21] (Homo sapiens, MCF7, 48 h), more than 20 µM; in assay [27] (Homo sapiens, A549, 48 h), more than 20 µM.
Consider `COc1ccc(C(=O)C[n+]2c(C)n(Cc3c4c(cc5c3OCC5)OCC4)c3ccccc32)cc1`, for which the IC50 in [1] (Homo sapiens, HL-60, 48 h) is 5.14 µM; in assay [2] (Homo sapiens, SW480, 48 h) it was 10.1 µM; in assay [15] (Homo sapiens, SMMC-7721, 48 h), more than 20 µM; in assay [21] (Homo sapiens, MCF7, 48 h), 7.87 µM; in [27] (Homo sapiens, A549, 48 h), more than 20 µM.
Take `Cc1cc2c(cc1C)[n+](Cc1ccc3ccccc3c1)cn2Cc1c2c(cc3c1OCC3)OCC2` [listing 2 of 2 here]: the IC50 in assay [1] (hl-60) amounted to 1.06 µM; in [2] (Homo sapiens, SW480, 48 h), 3.48 µM; in [15] (Homo sapiens, SMMC-7721, 48 h) it was 2.99 µM; in [21] (mcf7), 3.94 µM; in assay [27] (Homo sapiens, A549, 48 h), 4.34 µM.
Take `Cc1cc2c(cc1C)[n+](CC(=O)c1ccc(Br)cc1)cn2Cc1c2c(cc3c1OCC3)OCC2`: the IC50 is 4.04 µM in assay [1] (Homo sapiens, HL-60, 48 h); 16.3 µM in assay [2] (Homo sapiens, SW480, 48 h); 6.23 µM in [15] (smmc-7721); 12.7 µM in assay [21] (Homo sapiens, MCF7, 48 h); 8 µM in assay [27] (Homo sapiens, A549, 48 h).
